Laboratory results published in patent publication US20260226068A1, “IMIDAZOTRIAZINE IL-17A MODULATORS AND USES THEREOF” (DICE ALPHA, INC., priority 2023, published 2026).

What was measured:
[1] = molecular target: T1, IL-17A/F (Homo sapiens, UniProt Q16552+Q96PD4); assay: IL-17A/F HEK-Blue cell assay (SEAP reporter); type: cell-based; conditions: HEK-Blue IL-17A reporter cells, IL17A/F 5 ng/mL, 20 hours, SEAP read at A630; read-out: HEK-Blue IL17AF (IC50 for IL-17A/F inhibition)
T1 construct: purchased R&D Systems
T1 sequence (Q16552 24-155): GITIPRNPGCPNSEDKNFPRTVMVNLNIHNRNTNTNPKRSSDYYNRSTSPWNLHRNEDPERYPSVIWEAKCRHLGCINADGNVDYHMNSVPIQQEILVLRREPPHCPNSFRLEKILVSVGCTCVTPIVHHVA
T1 sequence (Q96PD4 31-163): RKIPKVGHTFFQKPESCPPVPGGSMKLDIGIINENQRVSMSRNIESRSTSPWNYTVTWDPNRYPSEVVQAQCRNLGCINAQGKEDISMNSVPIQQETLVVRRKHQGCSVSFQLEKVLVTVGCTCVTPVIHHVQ

[2] = molecular target: T2, IL-17A/A (Homo sapiens, UniProt Q16552); assay: IL-17A/A HEK-Blue cell assay (SEAP reporter); type: cell-based; conditions: HEK-Blue IL-17A reporter cells, IL17A/A 5 ng/mL, 20 hours, SEAP read at A630; read-out: HEK-Blue IL17AA (IC50 for IL-17A/A inhibition)
T2 construct: purchased Genscript Z03228
T2 sequence (Q16552 24-155): T1 sequence (Q16552 24-155)

Compound | IC50 [1] [nM] | IC50 [2] [nM]
CCn1nccc1C(=O)N[C@H](c1cn2nc(C[C@H]3C[C@@H](C(F)(F)F)CNC3=O)c(CN3CC(C)(F)C3)nc2n1)C1CCC(F)(F)CC1 [Compound 337, N—((S)-(4,4-difluorocyclohexyl)(3-((3-fluoro-3-methylazetidin-1-yl)methyl)-2-(((3R,5R)-2-oxo-5-(trifluoromethyl)piperidin-3-yl)methyl)imidazo[1,2-b][1,2,4]triazin-6-yl)methyl)-1-ethyl-1H-pyrazole-5-carboxamide] | > 1000 | < 100
CCn1nccc1C(=O)N[C@H](c1cn2nc(C[C@@H]3C[C@H](C)CNC3=O)c(C(C)C)nc2n1)C1CCC(F)(F)CC1 [Compound 392] | > 1000 | < 100
CCn1nccc1C(=O)N[C@H](c1cn2nc(CC3C[C@@H](C(F)(F)F)CNC3=O)c(N3CC4CC(C3)O4)nc2n1)[C@H]1CCCC(F)(F)C1 (single isomer, unassigned) [Compound 92] | 100 to 1000 | < 100
CCn1nccc1C(=O)N[C@H](c1cn2nc(C[C@H]3C[C@@H](C(F)(F)F)CNC3=O)c(N3CCOCC3)nc2n1)C1CCCCC1 [Compound 326, N—((S)-cyclohexyl(3-morpholino-2-(((3R,5R)-2-oxo-5-(trifluoromethyl)piperidin-3-yl)methyl)imidazo[1,2-b][1,2,4]triazin-6-yl)methyl)-1-ethyl-1H-pyrazole-5-carboxamide] | 100 to 1000 | < 100
O=C(N[C@H](c1cn2nc(C[C@H]3C[C@@H](C(F)(F)F)CNC3=O)c(C3CCCOC3)nc2n1)[C@H]1CCCC(F)(F)C1)c1nonc1C1CC1 (single isomer, unassigned) [Compound 125] | > 1000 | < 100
CCn1nccc1C(=O)N[C@H](c1cn2nc(C[C@H]3C[C@@H](C(F)(F)F)CNC3=O)c(C3CCOCC3)nc2n1)C1CCCCC1 [Compound 196, N-((1S)-cyclohexyl(2-(((3R,5R)-2-oxo-5-(trifluoromethyl)piperidin-3-yl)methyl)-3-(tetrahydro-2H-pyran-4-yl)imidazo[1,2-b][1,2,4]triazin-6-yl)methyl)-1-ethyl-1H-pyrazole-5-carboxamide] | < 100 | < 100
CCn1nccc1C(=O)N[C@H](c1cn2nc(C[C@@H]3C[C@@H](C)CNC3=O)c(C(C)C)nc2n1)C1CCC(F)(F)CC1 [Compound 390] | 100 to 1000 | < 100
CCc1nonc1C(=O)N[C@H](c1cn2nc(C[C@H]3C[C@@H](C(F)(F)F)CNC3=O)cnc2n1)C1CCC(F)(F)CC1 [Compound 35] | > 1000 | 100 to 1000
CCn1nccc1C(=O)N[C@H](c1cn2nc(C[C@H]3C[C@@H](C(F)(F)F)CNC3=O)c([C@H]3COCCC3(F)F)nc2n1)C1CCC(F)(F)CC1 (single isomer, unassigned) [Compound 257] | 100 to 1000 | < 100
O=C(N[C@H](c1cn2nc(C[C@H]3C[C@@H](C(F)(F)F)CNC3=O)c(C3CCOCC3)nc2n1)C1CCC(F)(F)CC1)c1nonc1CN1CC(F)C1 [Compound 373, N—((S)-(4,4-difluorocyclohexyl)(2-(((3R,5R)-2-oxo-5-(trifluoromethyl)piperidin-3-yl)methyl)-3-(tetrahydro-2H-pyran-4-yl)imidazo[1,2-b][1,2,4]triazin-6-yl)methyl)-4-((3-fluoroazetidin-1-yl)methyl)-1,2,5-oxadiazole-3-carboxamide] | 100 to 1000 | < 100
CCn1nccc1C(=O)N[C@H](c1cn2nc(C[C@H]3C[C@@H](C(F)(F)F)CNC3=O)c(C34CCOC(C3)C4)nc2n1)C1CCC(F)(F)CC1 [Compound 250, N—((S)-(3-(2-oxabicyclo[3.1.1]heptan-5-yl)-2-(((3R,5R)-2-oxo-5-(trifluoromethyl)piperidin-3-yl)methyl)imidazo[1,2-b][1,2,4]triazin-6-yl)(4,4-difluorocyclohexyl)methyl)-1-ethyl-1H-pyrazole-5-carboxamide] | 100 to 1000 | < 100
CC(C)n1nccc1C(=O)N[C@H](c1cn2nc(CC3C[C@@H](C(F)(F)F)CNC3=O)c(N3CCOCC3)nc2n1)[C@H]1CC[C@H](C)CC1 (single isomer, unassigned) [Compound 101] | 100 to 1000 | < 100
CCn1nccc1C(=O)N[C@H](c1cn2nc(CC3C[C@@H](C(F)(F)F)CNC3=O)c(N3CCOCC3)nc2n1)[C@H]1CC[C@H](C)CC1 (stereo partly drawn) [Compound 59] | > 1000 | < 100
CCn1nccc1C(=O)N[C@H](c1cn2nc(C[C@@H]3CC(F)(F)CNC3=O)c(C3CCOCC3)nc2n1)C(C1CC1)C1CC1 [Compound 328] | 100 to 1000 | < 100
CCn1nccc1C(=O)N[C@H](c1cn2nc(C[C@H]3C[C@@H](C(F)(F)F)CNC3=O)c(C3CCOCC3)nc2n1)C(C1CC1)C1CC1 [Compound 137, N-((1S)-2,2-dicyclopropyl-1-(2-(((3R,5R)-2-oxo-5-(trifluoromethyl)piperidin-3-yl)methyl)-3-(tetrahydro-2H-pyran-4-yl)imidazo[1,2-b][1,2,4]triazin-6-yl)ethyl)-1-ethyl-1H-pyrazole-5-carboxamide] | 100 to 1000 | < 100
O=C(N[C@H](c1cn2nc(C[C@H]3C[C@@H](C(F)(F)F)CNC3=O)c(C3CCCOC3)nc2n1)[C@@H]1CCCC(F)(F)C1)c1nonc1C1CC1 (single isomer, unassigned) [Compound 210] | 100 to 1000 | < 100
O=C(N[C@H](c1cn2nc(C[C@H]3C[C@@H](C(F)(F)F)CNC3=O)cnc2n1)C1CCC(F)(F)CC1)c1nonc1[C@@H]1CC1(F)F (single isomer, unassigned) [Compound 77] | > 1000 | < 100
CCn1nccc1C(=O)N[C@H](c1cn2nc(C[C@H]3C[C@@H](C(F)(F)F)CNC3=O)c(C3CCOC(C)(C)C3)nc2n1)C1CCC(F)(F)CC1 (single isomer, unassigned) [Compound 176] | < 100 | < 100
Cn1nccc1C(=O)N[C@H](c1cn2nc(C[C@H]3C[C@@H](C(F)(F)F)CNC3=O)c(C3CCOCC3)nc2n1)[C@H]1CCCC(F)(F)C1 [Compound 278, N—((S)—((S)-3,3-difluorocyclohexyl)(2-(((3R,5R)-2-oxo-5-(trifluoromethyl)piperidin-3-yl)methyl)-3-(tetrahydro-2H-pyran-4-yl)imidazo[1,2-b][1,2,4]triazin-6-yl)methyl)-1-methyl-1H-pyrazole-5-carboxamide] | 100 to 1000 | < 100

Now from value to molecule:

IC50 [1] [nM] | IC50 [2] [nM] | Compound
> 1000 | 100 to 1000 | CCn1nccc1C(=O)N[C@H](c1cn2nc(C[C@H]3C[C@@H](C(F)(F)F)CNC3=O)c(C3CCN(C)C3)nc2n1)C1CCC(F)(F)CC1 (single isomer, unassigned) [Compound 285]
100 to 1000 | < 100 | CCn1nccc1C(=O)N[C@H](c1cn2nc(C[C@H]3C[C@@H](C(F)(F)F)CNC3=O)c(N3CCO[C@@H](C)C3)nc2n1)C1CCC(F)(F)CC1 [Compound 283, N—((S)-(4,4-difluorocyclohexyl)(3-((S)-2-methylmorpholino)-2-(((3R,5R)-2-oxo-5-(trifluoromethyl)piperidin-3-yl)methyl)imidazo[1,2-b][1,2,4]triazin-6-yl)methyl)-1-ethyl-1H-pyrazole-5-carboxamide]
100 to 1000 | < 100 | CCn1nccc1C(=O)N[C@H](c1cn2nc(C[C@H]3C[C@@H](C(F)(F)F)CNC3=O)c(CC3CCCCO3)nc2n1)C1CCC(F)(F)CC1 (stereo partly drawn) [Compound 172, N-((1S)-(4,4-difluorocyclohexyl)(2-(((3R,5R)-2-oxo-5-(trifluoromethyl)piperidin-3-yl)methyl)-3-((tetrahydro-2H-pyran-2-yl)methyl)imidazo[1,2-b][1,2,4]triazin-6-yl)methyl)-1-ethyl-1H-pyrazole-5-carboxamide]
> 1000 | < 100 | CCn1nccc1C(=O)N[C@H](c1cn2nc(C[C@H]3C[C@@H](C(F)(F)F)CNC3=O)c(CN3CCC(F)(F)CC3)nc2n1)C1CCC(F)(F)CC1 [Compound 345, N—((S)-(4,4-difluorocyclohexyl)(3-((4,4-difluoropiperidin-1-yl)methyl)-2-(((3R,5R)-2-oxo-5-(trifluoromethyl)piperidin-3-yl)methyl)imidazo[1,2-b][1,2,4]triazin-6-yl)methyl)-1-ethyl-1H-pyrazole-5-carboxamide]
> 1000 | < 100 | CCn1nccc1C(=O)N[C@H](c1cn2nc(CC3C[C@@H](C(F)(F)F)CNC3=O)c(N3CC4CC(C3)O4)nc2n1)C1CCC(F)(F)CC1 (single isomer, unassigned) [Compound 82]
100 to 1000 | < 100 | CCn1nccc1C(=O)N[C@H](c1cn2nc(CC3C[C@@H](C(F)(F)F)CNC3=O)c(N3CCOCC3)nc2n1)[C@H]1CCCC(F)(F)C1 (single isomer, unassigned) [Compound 91]
100 to 1000 | < 100 | CCn1nccc1C(=O)N[C@H](c1cn2nc(C[C@H]3C[C@@H](C(F)(F)F)CNC3=O)c(N3CCN(CC4CC4)CC3)nc2n1)C1CCC(F)(F)CC1 [Compound 244, N—((S)-(3-(4-(cyclopropylmethyl)piperazin-1-yl)-2-(((3R,5R)-2-oxo-5-(trifluoromethyl)piperidin-3-yl)methyl)imidazo[1,2-b][1,2,4]triazin-6-yl)(4,4-difluorocyclohexyl)methyl)-1-ethyl-1H-pyrazole-5-carboxamide]
> 1000 | 100 to 1000 | CCn1nccc1C(=O)N[C@H](c1cn2nc(C[C@H]3C[C@@H](C(F)(F)F)CNC3=O)c([C@@H]3CCCCN3)nc2n1)C1CCC(F)(F)CC1 (single isomer, unassigned) [Compound 324]
